Data from ChEMBL document CHEMBL1150738, “Plant antitumor agents, 27. Isolation, structure, and structure activity relationships of alkaloids from Fagara macrophylla” (1987).
Calls of active or inactive are those of the source. The calls are words filed in the database; no cut-off is given here.

Experiments:
B16 = experiment: Cytotoxicity against mouse B16 cells; assay type: functional, cell-based
P388 = experiment: In vivo antitumor activity against mouse P388 cells at 30 to 50 mg/kg, ip relative to control; assay type: functional; details: for T/C: dose mg/kg 30-50, route intraperitoneal

Structure (SMILES) | Activity (B16) | T/C (P388) [%] | Activity (P388)
COc1cc2c[n+](C)c3c4cc5c(cc4ccc3c2cc1OC)OCO5.[Cl-] [NITIDINE CHLORIDE] | inactive | 240 | –
COc1cc2c(cc1OC)C(OC)N(C)c1c-2ccc2cc3c(cc12)OCO3 (stereo unspecified) | – | 240 | –
COc1cc2cnc3c4cc5c(cc4ccc3c2cc1OC)OCO5 | – | – | inactive
COc1cc2c(cc1OC)-c1ccc3cc4c(cc3c1N(C)C2)OCO4 | – | – | inactive
COc1cc2c(=O)n(C)c3c4cc5c(cc4ccc3c2cc1OC)OCO5 | – | – | inactive
